# Laboratory results reported in patent US20090191580A1, “METHOD OF SCREENING USING c-MET, A NOVEL SUBSTRATE FOR GAMMA-SECRETASE” (Eisai R & D Management Co., Ltd., priority 2007, published 2009).
# System: cleavage of c-Met by γ-secretase
# Assay: Analysis of c-Met processing in c-Met-transfected 293/EBNA-1 cell strain (Western blotting with anti-HA antibody)
# Format: cell-based, rat c-Met in HEK293 (293/EBNA-1) cells
# Design: dose or concentration left out as unconfirmed
# Details: Compound E added to culture broth, cultured another day, rat c-Met-HA transfected 293/EBNA-1 (HEK293) cells
# Method: Whether or not c-Met is a substrate for γ-secretase was evaluated using HEK293 cells expressing a gene encoding c-Met with an HA tag added to its C-terminus, in the presence of a γ-secretase inhibitor. As the γ-secretase inhibitor, (2S)-2-{[(3,5-difluorophenyl)acetyl]amino}-N-[(3S)-1-methyl-2-oxo-5-phenyl-2,3-dihydro-1H-1,4-benzodiazepin-3-yl]propanamide (hereinafter, sometimes referred to as “Compound E”) (Alexis Biochemicals) was used.
# 293/EBNA-1 cell strain (Invitrogen) was cultured in 10% FBS (Hyclone)/DMEM (Invitrogen) under 5% CO2 at 37° C., followed by transfection thereinto of the gene encoding rat c-Met with an HA tag added to its C-terminus using Lipofectamine 2000 (Invitrogen). After one day culture under the same conditions, […] Compound E (Alexis Biochemicals) was added to the culture broth. Cells were cultured for another day under the same conditions. Then, the transfected HEK293 cells were collected with PBS (Sigma) and sonicated with a sonicator (Taitec VP-5S) to disrupt cells. Then, the quantity of protein was determined with Protein Assay Kit (BioRad). Samples (2 μl each) were taken from proteins obtained from Compound E-added cells and Compound E-not added cells, respectively, and subjected to SDS-PAGE, followed by Western blotting with an anti-HA antibody (Roche) (final concentration: 0.2 μg/ml). […]
compound,measurement,value
"C[C@H](NC(=O)Cc1cc(F)cc(F)c1)C(=O)N[C@H]1N=C(c2ccccc2)c2ccccc2N(C)C1=O [Compound E, (2S)-2-{[(3,5-difluorophenyl)acetyl]amino}-N-[(3S)-1-methyl-2-oxo-5-phenyl-2,3-dihydro-1H-1,4-benzodiazepin-3-yl]propanamide]",c-Met undegraded product (CTF band around 50 kDa) on Western blot,a band around 50 kDa (CTF: C terminal fragment) was accumulated specifically as a c-Met undegraded product
